US6759238B1, “Multidrug resistance associated proteins and uses thereof” (priority 1999, dated 2004)
Where “and” joins values, the source holds several entries; their conditions need not be identical. Equal entries are not always repeated. Where two headings read alike, the source gives them in different places. Blank lines part the entries; values can stand above or below the compound they belong to.

Tests used:
[1] = test system: HIV-1IIIB in CEM-r1 cells; assay: Antiviral activity (ED50, RT / p24 assay) in resistant cells; format: cell-based; conditions: for EC50: Human immunodeficiency virus 1, CEM-r1 cells, HIV
Text: (§1) As used herein, “pM” means picomolar, “nM” means nanmolar, “μM, means micromolar, “mM” means millimolar, “ul” or “μl” mean microliter, “ml” means milliliter, “l” means liter. […] “IC50” means the inhibitory concentration at which growth is arrested by 50 percent.
(§2) The two cell lines, CEM-SS and CEM-r1 were infected with HIV-IMB at a multiplicity of 0.01, and cultured for 6 days in the presence and absence of different concentrations of test drugs. The extent of virus production was monitored by in in-house p24 antigen capture assay (50).
The antiviral effects of the different drugs were monitored by RT assays according to previously described procedures (20, 21). CEM-SS or CEM-r1 cells were infected with an inoculum of HIV-1IIIB standardized to contain 1 RT cpm/cell, and the virus-infected cells were seeded at a concentration of 0.2×10^6 cells/ml in medium containing varying concentrations of PMEA (or other test compounds). After 5 days of incubation, the RT activity of the culture supernates was determined by previously described procedures (22). […] The reaction was initiated by addition of 10 ul of virus-containing tissue culture supernatant. After 1 hr of incubation, 10 ul of the reaction mixture were spotted on a Whatman DE-81 tilter paper, air dried, and washed four times with 2×standard saline citrate (0.3 M NaCl, 0.03 M sodium citrate). The filter papers were dried, transferred to a plastic bag containing scintillation cocktail, sealed, and counted in an LKB Betaplate reader. The drug concentrations yielding half-maximal RT activity (ED50) was calculated as a measure of the antiviral efficacy of the test compounds, using the nonlinear curve-fitting software Enzfitter (Elsevier Biosoft, Cambridge, UK).

CaCo-2 cells = assay: PMEA transport in transwell culture; format: in vitro ADME; conditions: CaCo-2
Text: A transwell culture which is permissive for cellular polarization may be used to measure the compartment to compartment flux of putative substrates. […] In addition, it is possible that expression of MPR4 depending if it is basal or apical (and this may vary by organ cultured) may determine if PMEA or PMEA-like drugs are absorbed.

CEM-r1 cells [2] = assay: Cytotoxicity assay (growth inhibition, Coulter counter)
Procedure: (§3) Selection for PMEA resistance was carried out by exposing CEM-SS cells in culture to increasing concentrations of PMEA, over several months.
(§4) The IC50 values were obtained after 2 days of culture. Each result is the mean of one representative experiment performed in duplicate. The cultures with the purine nucleosides adenosine, 2′-deoxyadenosine, and arabinosyladenine contained 5 μM deoxycoformycin to inhibit adenosine deaminase activity.
(§5) All assays were performed in 24-well tissue culture plates (Costar, Cambridge, Ma.). […] At the end of the incubation, the cell concentrations, sizes, and volumes were counted in a Coulter counter (Coulter Electronics, Hialeah. Fla.).

CEM-SS cells [3] = assay: Efflux of PMEA from bispom-PMEA loaded cells; format: in vitro ADME, human; conditions: for Efflux kinetics, PMEA: CEMss
Procedure: (§6) To examine whether the resistant cells could be altered in their capacity to retain the phosphonate analog, the clearance of [^3H]PMEA and its metabolites from CEM-SS and CME-r1 cells was determined. […] Aliquots of cells and medium sampled at different intervals over a period of 2 hr were analyzed by HPLC, and the results are shown in FIG. 4. […] Some of this clearance was probably due to the anabolism of PMEA, because the PMEAp- and PMEApp-associated radioactivity continued to accumulate within the cells, but the majority of the radioactivity was excreted into the medium as PMEA. In contrast to the results with parental cells, loss of intracellular PMEA-associated radioactivity in the resistant CEM-r1 cells was extremely rapid and the majority of the radioactivity within the cells was excreted into the medium within 20-30 minutes of incubation (FIG. 4).
(§7) Both CEM-SS and CME-r1 cells were incubated for 3 minutes with increasing concentrations (range 0.07 mM to 8.80 mM) of the prodrug for the selecting agent, Bis(POM)PMEA. After incubation, the cells were pelleted and reconstituted in drug-free medium, and the amount of PMEA present in the medium and intracellularly was measured 15 minutes after resuspension. The amount of PMEA effluxing out into the medium at 15 minutes increased initially with increasing concentration (FIG. 7A).
(§8) Referring to Table 6 in greater detail, efflux kinetics were studied. Transport analysis of PMEA was conducted as previously described^48. […] The cells were then washed free of radioactivity and then incubated in drug-free medium in the presence of sodium azide and 2-deoxy-D-glucose. At various time periods, the amount of intracellular AZTMP was measured. As reported in Table 6, depletion of ATP led to an inhibition of AZTMP efflux (i.e. a significant accumulation of AZTMP in the CEM-r1 cells but not in the CEM-SS cells).
(§9) At the indicated times, extracts were prepared from the cells and the medium, and the prodrug and its various nucleoside/nucleotide metabolites were analyzed by HPLC as described previously (24).

CEM-SS cells [4] = assay: Uptake and metabolism of [3H]PMEA; conditions: 10 μM [3H]PMEA
Procedure: (§16) The mutant and parental cells were incubated with 10 μM [^3H]PMEA and at various times were analyzed for intracellular levels of PMEA and its metabolites by Partisil SAX HPLC. […] The metabolism of [^3H]PMEA was also examined in both cell lines after longer periods (i.e., 8 and 12 hr) of incubation with 10 μM [^3H]PMEA.
(§17) Exponentially growing cultures were incubated with 10 μM [^3H] PMEA for 8 or 12 hr and the cell extracts were analyzed for PMEA and its metabolites by ion exchange HPLC, as described.
(§18) Exponentially growing CEM-SS and CEM-r1 cells were harvested by centrifugation, resuspended at 1×10^6 cells/ml in fresh medium in the presence of [^3H]PMEA or [^3H]bispom-PMEA, and incubated at 37° C. At the indicated time points, aliquots of the cells were removed and centrifuged through Nyosil 50 (W. F. Nye, Inc., New Bedford, Ma.) at 13,000×g for 60 seconds at 4° C. When bispom-PMEA was investigated, an aliquot of the cell-free medium was also removed and analyzed by HPLC for determination of extracellular metabolites. The cell pellet was extracted with 70% ice-cold methanol and the aqueous phase was collected and analyzed for intracellular tritiated PMEA or tritiated bispom-PMEA and their metabolites by using HPLC analysis, essentially as described previously (23, 24).

CEM-r1 cells [5] = assay: Efflux of PMEA from bispom-PMEA loaded cells; format: in vitro ADME, human
Procedure: as §6, §7
CEM-r1 cells were incubated with 0.07-8.8 mM Bis(POM)PMEA for 3 minutes. The cells were pelleted and reconstituted in either drug-free medium or in medium containing 0.5 mM PMEA, and the amount of PMEA present in the medium and intracellularly was measured 15 minutes after resuspension.
as §8, §9

CEM-SS cells [6] = assay: Cytotoxicity assay (growth inhibition, Coulter counter)
Procedure: (§10) […] Each result is the mean of one representative experiment performed in duplicate. The cultures with the purine nucleosides adenosine, 2′-deoxyadenosine, and arabinosyladenine contained 5 μM deoxycoformycin to inhibit adenosine deaminase activity.
as §5

CEM-r1 cells [7] = assay: Uptake and metabolism of [3H]bispom-PMEA
Procedure: (§11) Therefore, the metabolism of [^3H]bispom-PMEA (15), a lipophilic prodrug of PMEA, was analyzed in the two cell lines in order to further examine the mechanism of resistance in the mutant cell line.

CEM-SS cells [8] = assay: Uptake and metabolism of [3H]bispom-PMEA; conditions: CEM-SS, 1 μM [3H]bispom-PMEA, 15 minutes
Procedure: as §11

CEM-r1 cells [9] = assay: Uptake and metabolism of [3H]PMEA; conditions: for Intracellular levels: CEM-r1, 10 μM [3H]PMEA
Procedure: as §16, §17, §18

CEM-SS and CEM-r1 cells = assay: Uptake of [3H]-AZT; format: in vitro ADME, human; conditions: 10 μM and 100 μM, up to 120 seconds
Procedure: At various time periods (0, 10, 20, 30, 40, 60, 90, 120 seconds) from the start of the incubation, aliquots of the cell suspension were removed and centrifuged through Nyosil 50 (W. F. Nye, Inc.,New Bedford, Ma.) at 14,000×g for 60 seconds at 4° C.

[10] = Cytotoxicity assay (growth inhibition, Coulter counter); conditions: human
Procedure: as §3, §4, §5

[11] = as above; conditions: human, CEM-SS cells (wild type, parental)
Procedure: as §10, §5

[12] = test system: HIV-1IIIB in CEM-SS cells; assay: Antiviral activity (ED50, RT / p24 assay) in wild type cells; format: cell-based; conditions: Human immunodeficiency virus 1, WT (CEM-SS) cells
Text: as §1, §2
The antiviral effects of the different drugs were monitored by RT assays according to previously described procedures (20, 21). […] After 5 days of incubation, the RT activity of the culture supernates was determined by previously described procedures (22). […] The filter papers were dried, transferred to a plastic bag containing scintillation cocktail, sealed, and counted in an LKB Betaplate reader. The drug concentrations yielding half-maximal RT activity (ED50) was calculated as a measure of the antiviral efficacy of the test compounds, using the nonlinear curve-fitting software Enzfitter (Elsevier Biosoft, Cambridge, UK).

[13] = Efflux of [3H]-AZT and its metabolites; format: in vitro ADME, human; conditions: human, t½ for intracellular AZT, CEM-r1
Procedure: (§12) Cells were incubated for 60 minutes with [^3H]-AZT (10 μM) after which they were washed free of radioactivity, resuspended in drug-free medium and the intracellular and the extracellular concentration of [^3H]-AZT were measured. […] At least 80% of the AZTMP present intracellularly in CEM-r1 cells was excreted into the medium in 10 minutes (FIG. 6A).
as §8
(§13) The suspension was centrifuged at 3,300 rpm for 7 minutes. All but 1 ml of the supernatant medium containing the free drug was aspirated. […] The cell pellet was then washed with ice-cold medium and resuspended at the same concentration in drug-free medium and maintained at 37° C. […] An aliquot of the top layer (cell free media) was analyzed for the quantitation of AZT and its metabolites.

CEM-r1 cells [14] = assay: Phosphorylation of AZT; format: in vitro ADME, human; conditions: CEM-r1, 10 μM AZT
Procedure: (§14) The appearance of the phosphorylated metabolites into the medium was also determined in both the cell lines. AZTDP and AZTTP were not detected in the medium of either CEM-SS or CEM-r1 cells. However, the amount of AZTMP accumulated in the media was approximately 3-fold higher in CEM-r1 cells than in CEM-SS cells.
(§15) The cartridges were conditioned with 10% MeOH Ammonium Phosphate Buffer (5 mM, pH 4.0). The sample was loaded onto the column. […] AZTDP and AZTTP were eluted with 10% MeOH Ammonium Phosphate Buffer (700 mm, pH 4.6).

CEM-SS cells [15] = assay: Phosphorylation of AZT; format: in vitro ADME, human; conditions: 10 μM AZT
Procedure: as §14, §15

[16] = Efflux of [3H]-AZT and its metabolites; format: in vitro ADME, human; conditions: human, t½ for intracellular AZT, CEM-SS
Procedure: as §12, §8, §13

[17] = CEM-r1, 1 μM [3H]bispom-PMEA, 15 minutes

SMILES: Nc1ncnc2c1ncn2CCOCP(=O)(O)O [PMEA, 9-(2phosphonylmethoxyethyl)adenine]
Cross-resistance of MDR mutant CEM/VLB100 (CEM/VLB100): did not exhibit any cross-resistance
Fold Resistance (antiviral activity) ([1]; CEM-r1 vs WT): >150
Direction of transport in transwell culture (CaCo-2 cells): more rapidly transported from the apical to the basal side
IC50 (CEM-r1 cells [2]; CEM-r1, 2 days of culture (Table 3)): 6200 µM
Relative Resistance (CEM-r1 cells [2]; CEM-r1 vs CEM-SS (Table 3)): 182
Resistance of CEM-r1 cells to the cytotoxic effects, compared with the parental cells (CEM-r1 cells [2]; CEM-r1 vs parental CEM-SS): ~250 fold and > 250 fold
Fold Resistance (cytotoxicity) (CEM-r1 cells [2]; ratio of IC50 of resistant line to IC50 of wild type): 250
IC50 (CEM-r1 cells [2]; read-out: Cytotoxicity IC50, CEM-r1 cells (Table 5)): 20000 µM
Efflux kinetics, PMEA (CEM-SS cells [3]; Azide + Deoxyglucose): >26 min
Efflux kinetics, PMEA (CEM-SS cells [3]; no treatment): >26 min
Rate of efflux (CEM-SS cells [3]; parental CEM-SS cells): 0.4 pmol/min/10^6 cells
Time to half-maximal clearance of intracellular radioactivity (CEM-SS cells [3]; parental CEM-SS cells, loaded with 1 μM [3H]bispom-PMEA, drug-free medium): about 60 min
Intracellular levels (CEM-SS cells [4]; 8 hr): 1.7 µM
Intracellular levels (CEM-SS cells [4]; 12 hr): 2.5 µM
Increase in rate of efflux, CEM-r1 vs CEM-SS (CEM-r1 cells [5]): ~7 fold
Amount of PMEA effluxed in the presence or absence of PMEA in the medium (CEM-r1 cells [5]; CEM-r1, medium with 0.5 mM PMEA vs drug-free): no significant difference
Time within which the majority of the radioactivity was excreted into the medium (CEM-r1 cells [5]; CEM-r1 cells, loaded with 2 μM [3H]bispom-PMEA, drug-free medium): 20 to 30 min
Efflux kinetics, PMEA (CEM-r1 cells [5]; CEMr-1, Azide + Deoxyglucose): >26 min
Efflux kinetics, PMEA (CEM-r1 cells [5]; CEMr-1, no treatment): 4.4 min
Rate of efflux (CEM-r1 cells [5]; resistant CEM-r1 cells): 2.55 pmol/min/10^6
IC50 (CEM-SS cells [6]; CEM-SS, 2 days of culture (Table 3)): 34 µM
IC50 (CEM-SS cells [6]; read-out: Cytotoxicity IC50, WT (CEM-SS) cells (Table 5)): 80 µM
IC50 (CEM-SS cells [6]; read-out: Drug sensitivity (concentration to inhibit 50% growth), CEMss, 24 h exposure (Table 6)): 80 µM
Levels in CEM-r1 cells relative to those seen in parental cells (CEM-r1 cells [7]; 1 μM [3H]bispom-PMEA, 15 min): about one third
Metabolite Levels, Cells (CEM-r1 cells [7]; [17]): 13.3 µM
Metabolite Levels, Medium (CEM-r1 cells [7]; [17]): 23.2 nM
Levels of extracellular PMEA, CEM-r1 vs parental CEM-SS (CEM-r1 cells [7]; medium, 1 μM [3H]bispom-PMEA, 15 min): ~5 fold
Metabolite Levels, Cells (CEM-SS cells [8]): 33.1 µM
Metabolite Levels, Medium (CEM-SS cells [8]): 4.8 nM
Intracellular levels (CEM-r1 cells [9]; 8 hr): 1.0 µM
Intracellular levels (CEM-r1 cells [9]; 12 hr): 1 µM and 0.99 µM
Intracellular level in CEM-r1 as percent of the wildtype level (CEM-r1 cells [9]; CEM-r1 vs CEM-SS, 8 hr): (56%)

SMILES: Cc1cn([C@H]2C[C@H](N=[N+]=[N-])[C@@H](CO)O2)c(=O)[nH]c1=O [AZT, zidovudine]
Cellular uptake in the two cell lines (CEM-SS and CEM-r1 cells): similar
EC50 [1]: 0.14 µM
IC50 (CEM-r1 cells [2]; Homo sapiens, 24 h, read-out: Drug sensitivity (concentration to inhibit 50% growth)): 3000 µM
IC50 at 48 h [10]: 3000 µM
IC50 (CEM-SS cells [6]; Homo sapiens, CEM-SS, 24 h, read-out: Drug sensitivity (concentration to inhibit 50% growth)): 500 µM
IC50 at 48 h [11]: 500 µM
EC50 [12]: 0.006 µM
half-life at 10 μM [13]: 6.5 min
Intracellular Concentration (CEM-r1 cells [14]; 8 hours): 5.2 µM
Intracellular Concentration (CEM-r1 cells [14]; 24 hours): 4.3 µM
Intracellular Concentration (CEM-SS cells [15]; 4 hours): 10 µM
Intracellular Concentration (CEM-SS cells [15]; 8 hours): 8 µM
Intracellular Concentration (CEM-SS cells [15]; 24 hours): 10 µM
half-life at 10 μM [16]: 8.1 min

EC50 [1]: 1.1 µM
EC50 [12]: 0.21 µM
SMILES: Nc1ccn([C@@H]2CS[C@H](CO)O2)c(=O)n1 [3TC, lamivudine]
IC50 at 48 h [10]: 5000 µM
IC50 at 48 h [11]: 1000 µM
